# Legend:
# Tyrosinase = biological target: T1, Tyrosinase (Agaricus bisporus, UniProt O42713)
# T1 sequence (O42713 whole entry): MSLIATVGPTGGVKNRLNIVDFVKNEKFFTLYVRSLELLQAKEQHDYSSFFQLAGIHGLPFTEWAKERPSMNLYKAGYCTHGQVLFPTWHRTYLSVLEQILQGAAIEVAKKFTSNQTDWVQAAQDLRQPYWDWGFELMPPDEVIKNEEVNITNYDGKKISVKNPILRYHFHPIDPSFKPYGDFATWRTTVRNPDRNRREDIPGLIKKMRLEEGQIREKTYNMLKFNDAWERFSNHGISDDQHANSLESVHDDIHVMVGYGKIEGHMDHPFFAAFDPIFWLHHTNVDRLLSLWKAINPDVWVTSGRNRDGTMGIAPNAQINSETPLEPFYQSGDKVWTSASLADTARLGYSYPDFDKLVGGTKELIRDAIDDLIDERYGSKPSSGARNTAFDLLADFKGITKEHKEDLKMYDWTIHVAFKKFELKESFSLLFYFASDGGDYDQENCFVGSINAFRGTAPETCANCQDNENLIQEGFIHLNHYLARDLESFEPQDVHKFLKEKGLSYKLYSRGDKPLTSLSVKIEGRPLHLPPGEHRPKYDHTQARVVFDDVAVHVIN
# Description: Inhibition of mushroom tyrosinase using L-tyrosine as substrate after 20 mins by spectrophotometric method
# [1] = biological target: T2, Tyrosinase (Agaricus bisporus) (UniProt O42713); assay: Ratio of kojic acid IC50 to compound IC50 for mushroom tyrosinase
# T2 sequence (whole entry): T1 sequence (O42713 whole entry)
SMILES,IC50 (Tyrosinase) [nM],Ratio IC50 [1]
O=C(CC(CC(=O)c1ccccc1O)c1ccc(O)cc1O)c1ccccc1O,1670,
O=C1CC(c2ccc(O)cc2O)Oc2cccc(O)c21 (stereo unspecified),1960,
O=C1CC(c2ccc(O)cc2O)Oc2ccccc21 (stereo unspecified),970,30
O=c1cc(-c2ccc(O)cc2O)oc2cccc(O)c12,2720,
O=Cc1ccc(O)cc1O,> 200000,
CC(=O)c1ccccc1O,> 300000,
CC(=O)c1c(O)cccc1O,> 300000,
O=C(/C=C/c1ccc(O)cc1O)c1ccccc1O,29,30
CC(=O)c1c(O)ccc(C(c2ccc(O)cc2O)c2ccc(O)c(C(C)=O)c2O)c1O,16200,
